# Source: BindingDB's records for doi:10.1021/jm00137a012 (1981)
# Biological target: T1, Dihydrofolate reductase (Bos taurus, UniProt P00376)
# T1 sequence (P00376 whole entry): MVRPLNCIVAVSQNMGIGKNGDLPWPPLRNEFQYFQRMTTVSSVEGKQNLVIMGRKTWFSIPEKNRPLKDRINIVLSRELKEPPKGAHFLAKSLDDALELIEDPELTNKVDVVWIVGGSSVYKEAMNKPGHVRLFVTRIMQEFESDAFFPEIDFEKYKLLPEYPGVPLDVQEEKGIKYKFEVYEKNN
# Assay: Inhibition of dihydrofolate reductase from bovine liver
row,Compound,Ki [µM]
1,Cc1ccc(Cc2cnc(N)nc2N)cc1,15.8
2,COc1ccc(Cc2cnc(N)nc2N)cc1OC [Diaveridine],7.08
3,"COCCOc1c(OC)cc(Cc2cnc(N)nc2N)cc1OC [5-[3,5-Dimethoxy-4-(2-methoxy-ethoxy)-benzyl]-pyrimidine-2,4-diamine]",13.2
4,Nc1ccc(Cc2cnc(N)nc2N)cc1,26.9
5,Nc1ncc(Cc2cc(CO)cc(CO)c2)c(N)n1,50.1
6,CC(=O)Nc1ccc(Cc2cnc(N)nc2N)cc1[N+](=O)[O-],6.92
7,"Nc1ncc(Cc2cccc(O)c2)c(N)n1 [3-(2,4-Diamino-pyrimidin-5-ylmethyl)-phenol]",13.2

# The next compounds have a lower Ki than those just listed; values first:
row,Ki [µM],Compound
1,2.63,CS(=O)(=O)Oc1cccc(Cc2cnc(N)nc2N)c1
2,6.31,Nc1ncc(Cc2cccc(CO)c2)c(N)n1
3,1.82,CCCCOc1ccc(Cc2cnc(N)nc2N)cc1
4,1.38,CCCCOCc1cccc(Cc2cnc(N)nc2N)c1
5,3.24,COCc1cccc(Cc2cnc(N)nc2N)c1
6,0.708,Nc1ncc(Cc2cccc(I)c2)c(N)n1
7,3.8,Nc1ncc(Cc2ccc(OC(F)(F)F)cc2)c(N)n1
8,2.95,Nc1ncc(Cc2cccc(C(F)(F)F)c2)c(N)n1
